Measured values from PubChem BioAssay AID316 (DTP/NCI, 2004).
Where “and” joins values, the source holds several entries; their conditions need not be identical. Equal entries are not always repeated. Inconclusive results and toxic doses are left out.

Test system: P1534 leukemia ip, CD2F1 mice, survival T/C
Experiment: NCI In Vivo Anticancer Drug Screen. Data for tumor model P1534 Leukemia (intraperitoneal) in CD2F1 (CDF1) mice
Settings: endpoint: mean survival time, higher = longer survival
Procedure: The antitumor activity of compounds was measured in mice bearing transplantable tumors. Survival or tumor size were measured and the results are expressed as the measurement made in the treated group (T) divided by the measurement made in the vehicle treated control group (C). The tumor model used in this assay is P1534 Leukemia (intraperitoneal) in CD2F1 (CDF1) mice

[1] = dose: 25.0 mg/kg/injection, schedule: Q01DX010 (ip), vehicle: saline
[2] = dose: 50.0 mg/kg/injection, schedule: Q01DX010 (ip), vehicle: saline
[3] = dose: 100.0 mg/kg/injection, schedule: Q01DX010 (ip), vehicle: saline
[4] = dose: 200.0 mg/kg/injection, schedule: Q01DX010 (ip), vehicle: saline
[5] = dose: 125.0 mg/kg/injection, schedule: Q01DX010 (ip), vehicle: saline
[6] = dose: 250.0 mg/kg/injection, schedule: Q01DX010 (ip), vehicle: saline
[7] = dose: 2.5 mg/kg/injection, schedule: Q01DX010 (ip), vehicle: saline
[8] = dose: 5.0 mg/kg/injection, schedule: Q01DX010 (ip), vehicle: saline
[9] = dose: 10.0 mg/kg/injection, schedule: Q01DX010 (ip), vehicle: saline
[10] = dose: 20.0 mg/kg/injection, schedule: Q01DX010 (ip), vehicle: saline
[11] = dose: 7.5 mg/kg/injection, schedule: Q01DX010 (ip), vehicle: saline
[12] = dose: 15.0 mg/kg/injection, schedule: Q01DX010 (ip), vehicle: saline
[13] = dose: 30.0 mg/kg/injection, schedule: Q01DX010 (ip), vehicle: saline
[14] = dose: 60.0 mg/kg/injection, schedule: Q01DX010 (ip), vehicle: saline
[15] = dose: 40.0 mg/kg/injection, schedule: Q01DX010 (ip), vehicle: saline
[16] = dose: 80.0 mg/kg/injection, schedule: Q01DX010 (ip), vehicle: saline

CCC(C)n1ncc2c(N(C)C)ncnc21 (stereo not given)
T/C (dose: 16.25 mg/kg/injection, schedule: Q01DX010 (ip), vehicle: saline): 107 % of control | T/C (dose: 32.5 mg/kg/injection, schedule: Q01DX010 (ip), vehicle: saline): 111 % of control | T/C (dose: 65.0 mg/kg/injection, schedule: Q01DX010 (ip), vehicle: saline): 96 % of control

O=[n+]1c2c(n([O-])c3ccccc31)-c1cccc3cccc-2c13
T/C [1]: 92 % of control and 96 % of control | T/C [2]: 103 % of control and 92 % of control | T/C [3]: 92 % of control and 96 % of control | T/C [4]: 92 % of control

CCN(CC)C(=S)S
T/C [5]: 100 % of control | T/C [6]: 100 % of control | T/C (dose: 500.0 mg/kg/injection, schedule: Q01DX010 (ip), vehicle: saline): 103 % of control | T/C (dose: 1000.0 mg/kg/injection, schedule: Q01DX010 (ip), vehicle: saline): 107 % of control

CCC1=CC2CN3CCc4c([nH]c5ccccc45)C(C(=O)OC)(C2)C13 (stereo not given)
T/C [7]: 117 % of control | T/C [8]: 103 % of control | T/C [9]: 100 % of control | T/C [10]: 92 % of control

N=C(N)SCc1c2ccccc2c(CSC(=N)N)c2ccccc12
T/C (dose: 0.31 mg/kg/injection, schedule: Q01DX010 (ip), vehicle: saline): 117 % of control | T/C (dose: 0.63 mg/kg/injection, schedule: Q01DX010 (ip), vehicle: saline): 121 % of control

CN(C)c1ccc(/C=C\c2ccnc3ccccc23)cc1
T/C (dose: 8.0 mg/kg/injection, schedule: Q01DX010 (ip), vehicle: saline): 115 % of control | T/C (dose: 12.0 mg/kg/injection, schedule: Q01DX010 (ip), vehicle: saline): 115 % of control | T/C (dose: 18.0 mg/kg/injection, schedule: Q01DX010 (ip), vehicle: saline): 103 % of control and 100 % of control | T/C (dose: 27.0 mg/kg/injection, schedule: Q01DX010 (ip), vehicle: saline): 123 % of control

Cc1ccccn1
T/C (dose: 62.5 mg/kg/injection, schedule: Q01DX010 (ip), vehicle: saline): 96 % of control | T/C [5]: 100 % of control | T/C [6]: 96 % of control

OCCN1CCC(CCCC2CCNCC2)CC1
T/C (dose: 12.5 mg/kg/injection, schedule: Q01DX010 (ip), vehicle: saline): 96 % of control | T/C [1]: 93 % of control | T/C [2]: 89 % of control

C/C=C1/CN[C@H]2Cc3c([nH]c4ccccc34)[C@@H](O)C[C@@H]1C2C(=O)OC (stereo not given in full)
T/C [11]: 93 % of control | T/C [12]: 93 % of control | T/C [13]: 96 % of control | T/C [14]: 93 % of control

Cn1c(N)nc2nc[nH]c2c1=S
T/C [9]: 100 % of control | T/C [10]: 100 % of control | T/C [15]: 96 % of control | T/C [16]: 110 % of control

O=C(NCCCCC(NC(=O)c1ccccc1)C(=O)NCCCCCCNCCCCCCNC(=O)C(CCCCNC(=O)c1ccccc1)NC(=O)c1ccccc1)c1ccccc1 (stereo not given)
T/C [1]: 100 % of control | T/C [2]: 110 % of control | T/C [3]: 100 % of control | T/C [4]: 106 % of control

CO[C@@H]1[C@@H](OC2OC(C)C(OC3CC(C)(O)C(OC(=O)CC(C)C)C(C)O3)C(N(C)C)C2O)[C@@H](CC=O)C[C@@H](C)C(=O)/C=C/C2O[C@H]2C[C@@H](C)OC(=O)C[C@H]1OC(C)=O (stereo not given in full)
T/C (dose: 50.0 mg/kg/injection, schedule: Q#A X020 (ip), vehicle: water): 96 % of control | T/C (dose: 100.0 mg/kg/injection, schedule: Q01DX010 (ip), vehicle: water): 92 % of control | T/C (dose: 100.0 mg/kg/injection, schedule: Q#A X020 (ip), vehicle: water): 107 % of control and 109 % of control | T/C (dose: 125.0 mg/kg/injection, schedule: Q#A X020 (ip), vehicle: water): 113 % of control | T/C (dose: 150.0 mg/kg/injection, schedule: Q#A X020 (ip), vehicle: water): 115 % of control | T/C (dose: 175.0 mg/kg/injection, schedule: Q#A X020 (ip), vehicle: water): 116 % of control | T/C (dose: 200.0 mg/kg/injection, schedule: Q01DX010 (ip), vehicle: water): 110 % of control | T/C (dose: 250.0 mg/kg/injection, schedule: Q01DX010 (ip), vehicle: water): 121 % of control | T/C (dose: 300.0 mg/kg/injection, schedule: Q01DX010 (ip), vehicle: water): 104 % of control | T/C (dose: 1000.0 mg/kg/injection, schedule: Q01DX010 (oral), vehicle: water): 119 % of control

C[C@]12CCC(=O)C=C1CC[C@@H]1[C@@H]2[C@@H](O)C[C@@]2(C)[C@H]1CC[C@]2(O)C(=O)CO
T/C (dose: 10.0 mg/kg/injection, schedule: Q01DX005 (sc), vehicle: steriod suspending solution): 110 % of control (2×) and 118 % of control | T/C (dose: 50.0 mg/kg/injection, schedule: Q01DX005 (sc), vehicle: steriod suspending solution): 104 % of control (2×) and 110 % of control | T/C (dose: 100.0 mg/kg/injection, schedule: Q01DX005 (sc), vehicle: steriod suspending solution): 90 % of control and 95 % of control | T/C (dose: 200.0 mg/kg/injection, schedule: Q01DX005 (sc), vehicle: steriod suspending solution): 87 % of control and 89 % of control | T/C (dose: 250.0 mg/kg/injection, schedule: Q01DX005 (sc), vehicle: steriod suspending solution): 93 % of control

COc1cc(C(=O)CC2CCCCN2)ccc1O (stereo not given)
T/C [9]: 100 % of control | T/C [10]: 96 % of control | T/C [15]: 96 % of control | T/C [16]: 93 % of control

Nc1nc(=S)c2[nH]cnc2[nH]1
T/C (dose: 1.25 mg/kg/injection, schedule: Q01DX010 (ip), vehicle: saline): 161 % of control and 181 % of control | T/C [7]: 150 % of control | T/C [8]: 122 % of control | T/C [9]: 105 % of control

O=c1cnn(C2OC(CO)C(O)C2O)c(=O)[nH]1 (stereo not given)
T/C [3]: 105 % of control and 107 % of control | T/C [4]: 105 % of control and 120 % of control | T/C (dose: 300.0 mg/kg/injection, schedule: Q01DX010 (ip), vehicle: saline): 90 % of control and 94 % of control | T/C (dose: 400.0 mg/kg/injection, schedule: Q01DX010 (ip), vehicle: saline): 103 % of control and 110 % of control | T/C (dose: 700.0 mg/kg/injection, schedule: Q01DX010 (ip), vehicle: saline): 86 % of control and 89 % of control | T/C (dose: 800.0 mg/kg/injection, schedule: Q01DX010 (ip), vehicle: saline): 93 % of control and 101 % of control | T/C (dose: 1600.0 mg/kg/injection, schedule: Q01DX010 (ip), vehicle: saline): 88 % of control

CC1CCOS(=O)O1 (stereo not given)
T/C [9]: 103 % of control | T/C [10]: 100 % of control | T/C [15]: 100 % of control

Clc1ncnc2nc[nH]c12
T/C [11]: 106 % of control and 100 % of control | T/C [12]: 94 % of control | T/C [13]: 105 % of control | T/C [14]: 105 % of control

C[C@]12C=CC(=O)C=C1CC[C@@H]1[C@@H]2CC[C@]2(C)OC(=O)CC[C@@H]12
T/C (dose: 12.5 mg/kg/injection, schedule: Q01DX010 (sc), vehicle: steriod suspending solution): 107 % of control | T/C (dose: 25.0 mg/kg/injection, schedule: Q01DX010 (sc), vehicle: steriod suspending solution): 107 % of control | T/C (dose: 50.0 mg/kg/injection, schedule: Q01DX010 (sc), vehicle: steriod suspending solution): 107 % of control | T/C (dose: 100.0 mg/kg/injection, schedule: Q01DX010 (sc), vehicle: steriod suspending solution): 100 % of control
